Results published in patent US9783551B2, “Pyranochromenyl phenol derivative, and pharmaceutical composition for treating metabolic syndrome or inflammatory disease” (GLACEUM, INC., priority 2013, dated 2017).
Each block holds one compound with its values, some of them ahead of it.

What was measured:
[1] = test system: DIO mice; assay: Organ weights and blood biochemistry of DIO mice after 28 days of administration; assay type: in vivo, C57BL/6 mice; settings: 150 mg/kg
Experimental: Five-week-old female C57BL/6 mice (Narabio Co., Ltd.) were purchased and fed with only high-fat diet for at least 10 weeks to produce diet induced obesity ([…]) mice. Samples were exactly taken from Preparation Example 1 (glabridin) and the compounds of Examples of the present invention (Compounds 1 to 5, 7, 9, 11, 14 to 16, 21, and 23) according to the administration dose and put into Falcon tubes, 3 ml of a 0.5% methyl cellulose aqueous solution was added thereto and a vortex mixer was used to primarily mix the ingredients in a soft manner, and then a homogenizer (30,000 rpm, Ultra-Turrax® T10 Basic, IKA) was used to treat the sample for 3 minutes while 1.5 ml of a 0.5% methyl cellulose aqueous solution was added thereto. The sample thus prepared was administered through oral gavage using a disposable plastic syringe once daily for 28 days (4 weeks). The body weight was measured twice a week while the DIO mice were bred in this manner. Based on the data thus calculated, the anti-obesity effect (%) was calculated according to the equation defined as follows. Anti-Obesity Effect={(Body weight of control group)−(Body weight of experimental group)}/(Body weight of control group)×100
After the experiment was performed for 28 days (4 weeks) as described above, blood was simultaneously taken while the experimental animal was finally sacrificed, and each of the organs (liver, heart, kidney, pancreas, fat tissues and the like) was removed to measure the weight and observe peculiar matters.
In Table 3, { }, ( ) and the like were used in order to differentiate experiments which had been performed at different periods. Experiments without the parenthesis were those simultaneously performed under the same conditions.

[2] = test system: RAW264.7 macrophages; assay: RAW264.7 macrophage NO assay (LPS-induced NO production, Griess reagent); assay type: cell-based; settings: for IC50: Mus musculus, RAW264.7, NO production, LPS 1 μg/ml, 24 hours; for effect of suppressing the production of NO: RAW264.7 macrophages, in words
How it was run: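 MTT (0.5 mg/ml, 4 h) viability read at 540 nm set non-cytotoxic compound concentrations for the NO test. NO suppression, read by absorbance at 540 nm, was the difference in NO between control and treated groups; values are means of three repeats.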

[3] = Chemical stability in 1% NaOH in MeOH (HPLC); assay type: physicochemical; settings: for stability in words: until 3 days (72 hours)
Experimental: The relative chemical stability of glabridin of Preparation Example 1, Example 3 (Compound 4), Example 4 (Compound 5) and Example 14 (Compound 15) were compared with each other. That is, 50 mg of each of glabridin, Compound 4, Compound 5, and Compound 15 was exactly weighed, dissolved in 50 ml of 1% HCl in MeOH and 10 ml of 1% NaOH in MeOH, and the concentrations of the compounds were examined by HPLC at each time level of 0, 8 hrs, 12 hrs, 24 hrs, 48 hrs, and 72 hrs. At this time, the concentrations of the compounds remaining in 1% HCl in MeOH and 1% NaOH in MeOH were determined using an internal standard (Compound 14 of Example 13). That is, 10 mg of Compound 14 was exactly weighed and dissolved in 100 ml of acetonitrile, 9 ml of this solution was mixed with 1 ml of the sample aliquoted at each time level, the mixture was analyzed by HPLC, and the concentrations of the compounds in the internal standard and in the above samples were determined by comparing the initial values.
The concentrations of the compounds remaining in 1% HCl in MeOH and 1% NaOH in MeOH at each time level are in the following Table 8 and FIG. 7 and the following Table 9 and FIG. 8, respectively.
The numerical values exceeding 100% in the following Tables 8 and 9 show those measured at a concentration is slightly higher than the initial measurement value, and this is due to the fact that an average value of the measured values was simply shown without considering a statistical error generated during the measurement. Since the measured value of about 95% or more is deemed to have practically no change in concentration, it may be seen that the compounds of the present invention are excellent in chemical stability.

[4] = test system: db/db mice; assay: Anti-diabetic effects for db/db mice (glycosylated hemoglobin); assay type: in vivo, C57BLKS/J-db/db mice
Experimental: 5-week-old male C57BLKS/J-db/db mice (Central Lab. Animal Inc.) were purchased and acclimatized for 2 weeks, and then used in this experiment. Samples were exactly taken from the compounds prepared in Examples 4 and 15 of the present invention (Compounds 5 and 16) according to the administration dose and put into Falcon tubes, a 0.5% methyl cellulose aqueous solution stored refrigerated was placed at room temperature to allow the excipients to be warmed at room temperature, 16 ml of each of the excipients was added to a 50 ml Falcon tube, and a vortex mixer was used to primarily mix the ingredients in a soft manner, and then a suspension was obtained and homogenized by treating the sample for 3 minutes using a homogenizer (30,000 rpm, CPT-1600E, Kinemtica, Switzerland), and then ultrasonically treated for 30 minutes. The sample thus prepared was administered through oral gavage using a disposable plastic syringe equipped with a sonde once daily for 42 days (6 weeks).
The glycosylated hemoglobin (HbA1c) was measured while the db/db mice were bred. The gyclosylated hemoglobin was measured at 2 days prior to group separation, 4 weeks after administration, and 6 weeks after administration, and was measured by fasting the mice for 4 hours on the measurement date, collecting blood from the caudal vein before each material was administered, and using a device for measuring glycosylated hemoglobin (SD A1cCare, SD Biosensor, Inc., Korea).

- IC50 [2]: 6.8 µM
- concentration of compound remaining [3]; 0: 100%
- concentration of compound remaining ([3]; 8 h): 100%
- concentration of compound remaining ([3]; 24 h): 100%
- concentration of compound remaining ([3]; 48 h): 98%
- concentration of compound remaining ([3]; 72 h): 100%
- stability in words [3]: very stable
Compound: CCOc1ccc(C2COc3c(ccc4c3CCC(C)(C)O4)C2)c(O)c1 (stereo not drawn) [Compound 15, 3-(2-hydroxy-4-ethoxyphenyl)-8,8-dimethyl-2,3,4,8,9,10-hexahydropyrano [2,3-f] chromene]
- ALT (U/L) ([1]; experiment without parenthesis): 52 U/L
- AST (U/L) ([1]; experiment without parenthesis): 143 U/L
- BMI ([1]; experiment without parenthesis): 3.6
- FFA (μEq/L) ([1]; experiment without parenthesis): 1760 μEq/L
- Fat (g), weight of fat removed around the epididymis and the kidney ([1]; experiment without parenthesis): 2.02 g
- LDL ([1]; experiment without parenthesis): 10 mg/dL
- Liver (g), weight of liver ([1]; experiment without parenthesis): 1.28 g
- effect of suppressing the production of NO [2]: excellent

- IC50 [2]: 5.2 µM
- concentration of compound remaining [3]; 0: 100%
- concentration of compound remaining ([3]; 8 h): 101%
- concentration of compound remaining ([3]; 24 h): 102%
- concentration of compound remaining ([3]; 48 h): 100%
- concentration of compound remaining ([3]; 72 h): 102%
- stability in words [3]: very stable
Compound: CCCc1ccc(C2COc3c(ccc4c3CCC(C)(C)O4)C2)c(O)c1 (stereo not drawn) [Compound 5, 3-(2-hydroxy-4-propylphenyl)-8,8-dimethyl-2,3,4,8,9,10-hexahydropyrano [2,3-f] chromene]
- ALT (U/L) ([1]; ( ) experiment): (50) U/L
- AST (U/L) ([1]; ( ) experiment): (131) U/L
- BMI ([1]; ( ) experiment): (3.0)
- FFA (μEq/L) ([1]; ( ) experiment): (2310) μEq/L
- Fat (g), weight of fat removed around the epididymis and the kidney ([1]; ( ) experiment): (1.04) g
- LDL (mg/dL) ([1]; ( ) experiment): (12) mg/dL
- Liver (g), weight of liver ([1]; ( ) experiment): (1.15) g
- HbA1c (%) 4 weeks ([4]; 4 weeks after administration, 300 mg/kg oral once daily): 5.3%
- HbA1c (%) 6 weeks ([4]; 6 weeks after administration, 300 mg/kg oral once daily): 5.7%
- HbA1c (%) Before administration ([4]; before administration, 300 mg/kg group): 4.7%
- effect of suppressing the production of NO [2]: excellent
